Read-outs that look alike come from different tables or passages of the source.
Tests used:
MN-negative DLD cells = test: FACS cell binding, DLD cells; assay type: cell-based
Protocol: Cells may be assayed for MN expression as a diagnostic tool. Adherent MN-expressing PC-3 mm2 cells and non-MN expressing DLD1 cells were detached from their flasks with 1:10 trypsin/Versene in PBS solution for 5 to 10 minutes. Cells were spun down (1000 rpm, 5 minutes), washed once with ice cold RPMI 10% FBS, and resuspended in ice-cold staining buffer (Ca^+ Mg^+-free PBS, 2% BSA, and 0.05% sodium azide) at 6×10^6 cells/ml. Primary antibody, human anti-MN IgG1, or control human IgG1 antibody at 25 μg/mL were incubated with 6×10^5 cells on ice for 1 hour. The unbound antibody was washed from the cells with the ice-cold staining buffer. The cells were fixed with 2% formaldehyde in PBS for 10 minutes, then washed twice with staining buffer. The cell pellet was resuspended in 100 μl ice cold staining buffer containing anti-human Alexa fluor 488 secondary antibody (final conc. 1:200, Molecular Probes/Invitrogen, Carlsbad, Calif.), and incubated on ice for 1 hour. The unbound antibody was washed from the cells two times with flow buffer (PBS containing 2% BSA), and the cells were resuspended in 1 mL flow buffer. FACS analysis of the resuspended cells was performed on a […] FACS Caliber instrument.
The MN antibody G250, a humanized IgG1 antibody, (Wilex) was used as a reference throughout the in vitro studies.

[1] = tested on: MN-expressing cells (PC3 mm2); test: Antibody internalization (Cellomics), PC3 mm2; assay type: cell-based, human
[2] = tested on: MaTu human mammary carcinoma xenograft; conditions: for tumors showing signs of re-growth: ˜3 months after cessation, 10 mice per group; for animals remained tumor-free: ˜90 days after cessation
Protocol: Anti-MN antibodies were conjugated to cytotoxic small molecules using protocols that are known in the art (e.g., Liu, et al., Proc. Natl. Acad. Sci. 93:8618-8623, 1996). Human mammary xenograft, MaTu cells were maintained as adherent cultures in RPMI supplemented with 10% FBS. Ncr nude mice (8-12 weeks of age) were inoculated subcutaneously in the right flank with 5×10^6 cells in 0.1 mL of 80% matrigel/20% HBSS. When tumors reached an average size of ˜180 mg (6 days), treatment was initiated. Monoclonal antibodies conjugated to cytotoxic small molecules were administered i.v. once every four days (Q4Dx3) at a dose of 10 mg/kg. Control mice were treated with PBS or an unconjugated monoclonal antibody. Daily examinations into the health status of each animal were conducted. Each experimental group consisted of 10 mice and the dosing volume was 0.1 mL/10 g body weight. The length and width of each tumor was measured by using an electronic caliper 2-3 times per week and tumor weights (mg) were calculated based on the formula of [length (mm)×width (mm)^2]/2. All data, including daily observations, obtained throughout the course of the study were documented. Tumor growth inhibition (TGI) was calculated as 1−T/C×100, where T=final tumor weights from a treated group, and C=final tumor weights from the control group.
The in vivo anti-tumor effect of 3ee9/MMAE was examined in 6 different human xenograft tumor models. These models were established through subcutaneous implantation of human tumor cells into female athymic NCr (nu/nu) mice (Taconic, N.Y.). The human tumor xenograft models evaluated included the MaTu human mammary carcinoma model, the HT-29 and Colo-205 human colo-rectal carcinoma (CRC) models, PC3MM2 prostate carcinoma model, the HCT-15 multi-drug resistant (P-gp) CRC model, and the MiaPaCa2 human pancreatic model. PBS was used as a vehicle, and dosing solutions were prepared fresh daily. The dosing volume was 0.1 mL/10 g (10 mL/kg).
The length and width of each tumor were measured using an electronic caliper 2-3 times per week, and tumor weights (mg) were calculated based on the formula of [length (mm)×width (mm)^2]/2. All data, including daily observations, obtained throughout the course of the study were documented in Anti-tumor Data Acquisition System (ADAS). […] Tumor growth inhibition (TGI) was calculated as (1-T/C)×100, where T=final tumor weights from a treated group after the last dose, and C=final tumor weights from the control group after the last dose. In addition, anti-tumor efficacy was measured as the incidence of responses (or responders or regressions) defined as tumors with ≦50% of their initial size. A minimum duration of 7 days is required for a response to be considered durable.
Human mammary xenograft, MaTu cells were maintained as adherent cultures in RPMI supplemented with 10% FBS. NCr nude mice (8-12 weeks of age) were inoculated subcutaneously in the right flank with 5×10^6 cells in 0.1 mL of 80% matrigel/20% HBSS. When tumors reached an average size of ˜180 mg (7 days), treatment was initiated. […] Control mice were treated with PBS or an un-conjugated monoclonal antibody at a dose of 10 mg/kg.
Daily examinations into the health status of each animal were conducted. Each experimental group consisted of 10 mice, and the dosing volume was 0.1 mL/10 g body weight. The length and width of each tumor was measured by using an electronic caliper 2-3 times per week, and tumor weights (mg) were calculated based on the formula of [length (mm)×width (mm)^2]/2. All data, including daily observations, obtained throughout the course of the study were documented. Tumor growth inhibition (TGI) was calculated as 1−T/C×100, where T=final tumor weights from a treated group, and C=final tumor weights from the control group.

[3] = tested on: PC3 mm2 human prostate tumor xenograft; test: PC3 mm2 subcutaneous xenograft model; assay type: in vivo, NCr nu/nu mice; conditions: for animals showing responses: PC3MM2
Protocol: The in vivo anti-tumor effect of 3ee9/MMAE was examined in 6 different human xenograft tumor models. These models were established through subcutaneous implantation of human tumor cells into female athymic NCr (nu/nu) mice (Taconic, N.Y.). […] PBS was used as a vehicle, and dosing solutions were prepared fresh daily. The dosing volume was 0.1 mL/10 g (10 mL/kg).
The length and width of each tumor were measured using an electronic caliper 2-3 times per week, and tumor weights (mg) were calculated based on the formula of [length (mm)×width (mm)^2]/2. […] Tumor growth inhibition (TGI) was calculated as (1-T/C)×100, where T=final tumor weights from a treated group after the last dose, and C=final tumor weights from the control group after the last dose. In addition, anti-tumor efficacy was measured as the incidence of responses (or responders or regressions) defined as tumors with ≦50% of their initial size. A minimum duration of 7 days is required for a response to be considered durable.
The anti-tumor activity of 3ee9/MMAE was next evaluated against human prostate (PC-3 mm2) and CRC (Colo-205) tumor xenografts. Female NCr nu/nu mice were implanted subcutaneously (s.c.) either with 5×10^6 PC3 mm2 or Colo-205 cells. Treatment was initiated when tumors were of an average size of approximately 125-150 mg. The general health of mice was monitored and recorded daily. Tumor dimensions and body weights were recorded twice a week starting with the first day of treatment.
In the PC3 mm2 and Colo-205 studies, 3ee9/MMAE was administered intravenously (i.v.) once every 4th day for a total of 3 injections (Q4Dx3) at doses of 1, 3, 10 and 30 mg/kg and 1.25, 2.5, 5 and 10 mg/kg, respectively.

[4] = tested on: HCT-15 multi-drug resistant (P-gp) CRC xenograft; test: HCT-15 multi-drug resistant xenograft model; assay type: in vivo, NCr nu/nu mice; conditions: HCT-15 MDR model
Protocol: To examine the effect of 3ee9/MMAE in a multi-drug resistance model, female NCr nu/nu mice were implanted subcutaneously (s.c.) with 5×10^6 HCT-15 cells. HCT-15 is a multi-drug resistant (MDR) line that over-expresses P-glycoprotein (P-gp). […] 3ee9/MMAE, Taxol, and Gemcitabine were administered when mice had established tumors with mean weight of ˜150 mg. Gemcitabine, a pyrimidine analog that is not a P-gp substrate was used as a positive control.

## 3ee9/MMAE: human anti-MN IgG1 antibody 3ee9 conjugated to Monomethylauristatin E (MMAE)
MN-negative DLD cells
  cell binding by FACS: not MN-negative DLD cells
[1]
  internalization: selectively internalized
[2]; 60 mg/kg i.v. Q4Dx3
  body weight loss: ~20%
  lethality: 10%
[2]; MaTu tumor-bearing mice, i.v. Q4Dx3
  maximum tolerated dose (MTD): 60 mg/kg
[2]; MaTu xenograft
  therapeutic index (MTD divided by MED): ~96
[2]; MaTu, 0.625 mg/kg Q4Dx3
  tumor regression: No tumor regression
[2]; MaTu, 0.625 mg/kg Q4Dx3, end of dosing
  inhibition of tumor growth: 62%
[2]; MaTu, 1 mg/kg Q4Dx3
  time tumors remained stable after cessation of treatment: ~2 weeks
  tumors responsive to treatment: 30%
[2]; MaTu, 1 mg/kg i.v. Q4Dx3, end of dosing
  TGI: 67%
[2]; MaTu, 1.25 mg/kg Q4Dx3
  animals exhibiting tumor regressions: 80%
[2]; MaTu, 1.25 mg/kg Q4Dx3, end of dosing
  inhibition of tumor growth: 81%
[2]; MaTu, 2.5 mg/kg and higher Q4Dx3
  animals responded to treatment: 100%
[2]; MaTu, 3 mg/kg i.v. Q4Dx3, end of dosing
  TGI: 72%
[2]; MaTu, 3 mg/kg
  tumors showing signs of re-growth: 3 tumors
  animals remained tumor-free: 70%
[2]; MaTu, 10 mg/kg i.v. Q4Dx3, end of dosing
  TGI: 78%
[2]; MaTu, 10 mg/kg
  tumors showing signs of re-growth: 1 tumors
  animals remained tumor-free: 90%
[2]; MaTu, 1, 3 and 10 mg/kg i.v. Q4Dx3
  tolerability: well-tolerated at all doses examined
[2]; MaTu, 2.5, 5, 10, 30 and 60 mg/kg Q4Dx3
  inhibition of tumor growth: ~90%
[2]; MaTu, 3 and 10 mg/kg Q4Dx3
  animals responded: 100%
[2]; MaTu, i.v. Q4Dx3
  minimum efficacious dose (MED): 0.625 mg/kg
[2]; Table 4 profile
  In vivo activity: MED: 1 mg/kg
  In vivo activity: MTD: 60 mg/kg
[2]; all other treatment groups (0.625 to 30 mg/kg) Q4Dx3
  tolerability: well tolerated
[3]; PC3-mm2 human prostate xenograft model
  anti-tumor effects: anti-tumor effects were seen
[3]; 3 mg/kg
  animals showing responses: 20%
[3]; 10 and 30 mg/kg i.v. Q4Dx3
  animals showing responses: 100%
[3]; PC3 mm2 (1, 3, 10, 30 mg/kg) and Colo-205 (1.25, 2.5, 5, 10 mg/kg) studies, i.v. Q4Dx3
  tolerability: well tolerated at all doses evaluated
[4]
  anti-tumor effect: failed to produce any significant anti-tumor effect

Source: patent publication US20120301468A1, “ANTI-MN ANTIBODIES AND METHODS OF USING SAME” (BAYER HEALTHCARE LLC, priority 2005, published 2012)
